# Results as given in patent publication US7045343B2, “Sterilization indicator test packs” (3M Innovative Properties Company, priority 1998, dated 2006).
# Key:
# [1] = test system: enzyme associated with Bacillus stearothermophilus spores; experiment: Rapid enzyme fluorescence readout of dual rapid readout indicators after prevacuum steam sterilization; type: biochemical; conditions: 4-pulse prevacuum steam 121° C.
# How it was run: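 Bacillus stearothermophilus ATCC 7953 spores were coated with a sterilant-resistant chemical solution and pipetted onto paper strips at about 1×10^6 spores per strip. Each strip sat in a dual rapid readout indicator beside a crushable inner container of nutrient medium holding 4-methylumbelliferyl-alpha-D-glucoside at pH 7.6. Indicators went through a 4-pulse prevacuum steam cycle at 121° C, were activated, incubated at 60° C, and read for fluorescence on a 3M ATTEST Model 190 Rapid Autoreader.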
# [2] = test system: Bacillus stearothermophilus spores; experiment: Spore outgrowth (color change) of indicators after prevacuum steam sterilization; type: cell-based; conditions: 4-pulse prevacuum steam 121° C.
# How it was run: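 Bacillus stearothermophilus ATCC 7953 spores were cleaned, mixed into a heated sterilant-resistant coating chemical solution and pipetted onto paper strips at about 1×10^6 spores per strip. The strips were dried and placed in indicators, then exposed to a 4-pulse prevacuum steam cycle at 121° C. After exposure the media ampoule was crushed, and growth was judged visually as a purple-to-yellow color change after 168 hours at 60° C.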
# [3] = Example 5, 50 mg/ml coating, 7–13 min
# [4] = Example 5, 100 mg/ml coating, 7–13 min
# [5] = Example 3, 100 mg/ml coating, 7–15 min
# [6] = Example 4, 100 mg/ml coating, 7–18 min
Compound,"FLUORESCENCE - PERCENT POSITIVE 1 HR [1, 3] [%]","FLUORESCENCE - PERCENT POSITIVE 2 HR [1, 3] [%]","FLUORESCENCE - PERCENT POSITIVE 3 HR [1, 3] [%]","FLUORESCENCE - PERCENT POSITIVE 4 HR [1, 3] [%]","NO. GROWTH POSITIVE 168 HR [2, 3]",accuracy of sterilization indicators compared to indicators made with untreated spores [1],"FLUORESCENCE - PERCENT POSITIVE 1 HR [1, 4] [%]","FLUORESCENCE - PERCENT POSITIVE 2 HR [1, 4] [%]","FLUORESCENCE - PERCENT POSITIVE 3 HR [1, 4] [%]","FLUORESCENCE - PERCENT POSITIVE 4 HR [1, 4] [%]","NO. GROWTH POSITIVE 168 HR [2, 4]",also measured
POE(10) Phytosterol,0,0,0,0,2,,,,,,,
Decaglyceryl Monomyristate,0,33.3,33.3,33.3,3,improved,0,100,100,100,2,
polyoxyethylene (5) glyceryl monostearate [POE (5) Glyceryl Monostearate],0,100.0,100.0,100.0,15,improved,0,100,100,100,5,
Decaglyceryl Diisostearate,30,80.0,100,100,10,improved,28.6,100.0,100,100,14,
POE(60) Sorbitol Tetrastearate,0,0,0,0,5,,,,,,,
OC[C@@H](O)[C@@H](O)[C@H](O)[C@@H](O)CO [Sorbitol],,,,,,,,,,,,"FLUORESCENCE - PERCENT POSITIVE 1 HR [1, 5]: 0%; FLUORESCENCE - PERCENT POSITIVE 2 HR [1, 5]: 52.8%; FLUORESCENCE - PERCENT POSITIVE 3 HR [1, 5]: 83.3%; FLUORESCENCE - PERCENT POSITIVE 4 HR [1, 5]: 91.7%; FLUORESCENCE - PERCENT POSITIVE 1 HR [1, 6]: 5.4%; FLUORESCENCE - PERCENT POSITIVE 2 HR [1, 6]: 40.5%; FLUORESCENCE - PERCENT POSITIVE 3 HR [1, 6]: 81.1%; FLUORESCENCE - PERCENT POSITIVE 4 HR [1, 6]: 89.2%; GROWTH POSITIVE 168 HR [2, 5]: 36; NO. GROWTH POSITIVE 168 HR [2, 6]: 37"
